# In patent US20140303164A1, “THERAPEUTIC COMPOUNDS” (Gilead Sciences, Inc., priority 2013, published 2014):
# Experiments:
# HIV-IIIb = assay: Test A: Antiviral Assay in MT4 Cells; assay type: cell-based, HIV-1; conditions: Human immunodeficiency virus 1, IIIB, MT4, 120 h; for inhibition at 0.2 µM: read-out: % inhibition at 0.2 μM; for inhibition at 2 µM: read-out: % inhibition at 2 μM
# Description: Test A: Antiviral Assay in MT4 Cells
# MT-4 cells were next mixed with HIV-IIIb at an m.o.i of 0.003 for 1 hour, after which time 35 μL of virus/cell mixture (2000 cells) was immediately added to each well containing 40 μL of diluted compound. The plates were then incubated at 37° C. for 5 days. […] Cell lysis was carried out by incubating at room temperature for 10 min and then chemiluminescence was read.
# [1] = Test B: Cytotoxicity Assay; assay type: cell-based; conditions: human, uninfected MT-4 cells, same protocol as Test A
# Procedure, shortened: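 Uninfected MT-4 cells (2000 per well) incubated with diluted compound at 37° C. for 5 days, following the antiviral protocol without HIV-IIIb.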
SMILES,inhibition at 0.2 µM (HIV-IIIb),inhibition at 2 µM (HIV-IIIb),CC50 at 5 days [1]
"Cn1nc(N)c2c(Cl)ccc(-c3ccc(C#CC(C)(C)O)nc3[C@H](Cc3cc(F)cc(F)c3)NC(=O)Cn3nc(C(F)F)c4c3C(F)(F)[C@@H]3C[C@H]43)c21 [Compound 57, N—((S)-1-(3-(3-amino-4-chloro-1-methyl-1H-indazol-7-yl)-6-(3-hydroxy-3-methylbut-1-yn-1-yl)pyridin-2-yl)-2-(3,5-difluorophenyl)ethyl)-2-((3bS,4aR)-3-(difluoromethyl)-5,5-difluoro-3b,4,4a,5-tetrahydro-1H-cyclopropa[3,4]cyclopenta[1,2-c]pyrazol-1-yl)acetamide]",93%,93%,7.63 µM
"COc1cc(-c2ccc(Cl)c3c(NS(C)(=O)=O)nn(C)c23)c([C@H](Cc2cc(F)cc(F)c2)NC(=O)Cn2nc(C(F)F)c3c2C(F)(F)[C@@H]2C[C@H]32)nc1C#CC(C)(C)O [Compound 139B, N—((S)-1-(3-(4-chloro-1-methyl-3-(methylsulfonamido)-1H-indazol-7-yl)-6-(3-hydroxy-3-methylbut-1-yn-1-yl)-5-methoxypyridin-2-yl)-2-(3,5-difluorophenyl)ethyl)-2-((3b-S,4aR)-3-(difluoromethyl)-5,5-difluoro-3b,4,4a,5-tetrahydro-1H-cyclopropa[3,4]cyclopenta[1,2-c]pyrazol-1-yl)acetamide]",94%,94%,15.4 µM
"CC(C)(O)C#Cc1ccc(-c2ccc3nnc(N)n3c2)c([C@H](Cc2cc(F)cc(F)c2)NC(=O)Cn2nc(C(F)F)c3c2C(F)(F)[C@@H]2C[C@H]32)n1 [Compound 105E, N—((S)-1-(3-(3-amino-[1,2,4]triazolo[4,3-a]pyridin-6-yl)-6-(3-hydroxy-3-methylbut-1-yn-1-yl)pyridin-2-yl)-2-(3,5-difluorophenyl)ethyl)-2-((3b-S,4aR)-3-(difluoromethyl)-5,5-difluoro-3b,4,4a,5-tetrahydro-1H-cyclopropa[3,4]cyclopenta[1,2-c]pyrazol-1-yl)acetamide]",–,74%,31.5 µM
"Cn1nc(NS(C)(=O)=O)c2c(Cl)ccc(-c3ccc(C#CC(C)(C)O)nc3[C@H](Cc3cc(F)cc(F)c3)NC(=O)Cn3nc4c(c3Cl)[C@H]3C[C@H]3C4(F)F)c21 [Compound 140M, N—((S)-1-(3-(4-chloro-1-methyl-3-(methylsulfonamido)-1H-indazol-7-yl)-6-(3-hydroxy-3-methylbut-1-yn-1-yl)pyridin-2-yl)-2-(3,5-difluorophenyl)ethyl)-2-((3b-S,4aR)-3-chloro-5,5-difluoro-3b,4,4a,5-tetrahydro-2H-cyclopropa[3,4]cyclopenta[1,2-c]pyrazol-2-yl)acetamide]",98%,98%,20.4 µM
"Cn1nc(NS(C)(=O)=O)c2c(Cl)ccc(-c3ccc(-c4cnc(C(C)(C)C)s4)nc3[C@H](Cc3cc(F)cc(F)c3)NC(=O)Cn3nc(C(F)(F)F)c4c3C(F)(F)[C@@H]3C[C@H]43)c21 [Compound 178, N—((S)-1-(6-(2-(tert-butyl)thiazol-5-yl)-3-(4-chloro-1-methyl-3-(methylsulfonamido)-1H-indazol-7-yl)pyridin-2-yl)-2-(3,5-difluorophenyl)ethyl)-2-((3b-S,4aR)-5,5-difluoro-3-(trifluoromethyl)-3b,4,4a,5-tetrahydro-1H-cyclopropa[3,4]cyclopenta[1,2-c]pyrazol-1-yl)acetamide]",95%,100%,14 µM
"Cn1nc(NS(C)(=O)=O)c2c(Cl)ccc(-c3cc(-c4ccccc4)cnc3[C@H](Cc3cc(F)cc(F)c3)NC(=O)Cn3nc(C(F)F)c4c3C(F)(F)[C@@H]3C[C@H]43)c21 [Compound 177D, N—((S)-1-(3-(4-chloro-1-methyl-3-(methylsulfonamido)-1H-indazol-7-yl)-5-phenylpyridin-2-yl)-2-(3,5-difluorophenyl)ethyl)-2-((3b-S,4aR)-3-(difluoromethyl)-5,5-difluoro-3b,4,4a,5-tetrahydro-1H-cyclopropa[3,4]cyclopenta[1,2-c]pyrazol-1-yl)acetamide]",100%,100%,> 53.2 µM
"CC(C)(O)C#Cc1ccc(-c2cccc3c(NS(C)(=O)=O)noc23)c([C@H](Cc2cc(F)cc(F)c2)NC(=O)Cn2nc(C(F)(F)F)c3c2C(F)(F)[C@@H]2C[C@H]32)n1 [Compound 39C, 2-((3bS,4aR)-5,5-difluoro-3-(trifluoromethyl)-3b,4,4a,5-tetrahydro-1H-cyclopropa[3,4]cyclopenta[1,2-c]pyrazol-1-yl)-N—((S)-2-(3,5-difluorophenyl)-1-(6-(3-hydroxy-3-methylbut-1-yn-1-yl)-3-(3-(methylsulfonamido)benzo[d]isoxazol-7-yl)pyridin-2-yl)ethyl)acetamide]",7%,91%,26.5 µM
"Cn1nc(NS(C)(=O)=O)c2cccc(-c3ccc(C#CC(C)(C)O)nc3[C@H](Cc3cc(F)cc(F)c3)NC(=O)Cn3nc(C(F)(F)F)c4c3C(F)(F)[C@@H]3C[C@H]43)c21 [Compound 33F, 2-((3bS,4aR)-5,5-difluoro-3-(trifluoromethyl)-3b,4,4a,5-tetrahydro-1H-cyclopropa[3,4]cyclopenta[1,2-c]pyrazol-1-yl)-N—((S)-2-(3,5-difluorophenyl)-1-(6-(3-hydroxy-3-methylbut-1-yn-1-yl)-3-(1-methyl-3-(methylsulfonamido)-1H-indazol-7-yl)pyridin-2-yl)ethyl)acetamide]",93%,93%,12.9 µM
"Cn1nc(NCC#N)c2c(Cl)ccc(-c3ccc(C#CC(C)(C)O)nc3[C@H](Cc3cc(F)cc(F)c3)NC(=O)Cn3nc(C(F)F)c4c3C(F)(F)[C@@H]3C[C@H]43)c21 [Compound 93, N—((S)-1-(3-(4-chloro-3-((cyanomethyl)amino)-1-methyl-1H-indazol-7-yl)-6-(3-hydroxy-3-methylbut-1-yn-1-yl)pyridin-2-yl)-2-(3,5-difluorophenyl)ethyl)-2-((3b-S,4aR)-3-(difluoromethyl)-5,5-difluoro-3b,4,4a,5-tetrahydro-1H-cyclopropa[3,4]cyclopenta[1,2-c]pyrazol-1-yl)acetamide]",92%,92%,4.81 µM
"Cn1nc(NS(C)(=O)=O)c2cccc(-c3ccc(C#CC(C)(C)O)nc3[C@H](Cc3cc(F)cc(F)c3)NC(=O)Cn3nc(C(F)(F)F)c4c3C3CC3CO4)c21 (stereo partly drawn) [Compound 67I, N—((S)-2-(3,5-difluorophenyl)-1-(6-(3-hydroxy-3-methylbut-1-yn-1-yl)-3-(1-methyl-3-(methylsulfonamido)-1H-indazol-7-yl)pyridin-2-yl)ethyl)-2-(3-(trifluoromethyl)-5,5a,6,6a-tetrahydro-1H-cyclopropa[4,5]pyrano[3,2-c]pyrazol-1-yl)acetamide]",94%,94%,21.5 µM
"CC(C)(O)C#Cc1ncc(-c2ccc3c(c2)C(=O)NC3)c([C@H](Cc2cc(F)cc(F)c2)NC(=O)Cn2nc(C(F)(F)F)c3c2C(F)(F)[C@@H]2C[C@H]32)n1 [Compound 22C, 2-((3bS,4aR)-5,5-difluoro-3-(trifluoromethyl)-3b,4,4a,5-tetrahydro-1H-cyclopropa[3,4]cyclopenta[1,2-c]pyrazol-1-yl)-N—((S)-2-(3,5-difluorophenyl)-1-(2-(3-hydroxy-3-methylbut-1-yn-1-yl)-5-(3-oxoisoindolin-5-yl)pyrimidin-4-yl)ethyl)acetamide]",92%,92%,4.95 µM
"CC(C)(O)C#Cc1ccc(-c2ccc(Cl)n3c(N)nnc23)c([C@H](Cc2cc(F)cc(F)c2)NC(=O)Cn2nc(C(F)(F)F)c3c2C(F)(F)[C@@H]2C[C@H]32)n1 [Compound 111, N—((S)-1-(3-(3-amino-5-chloro-[1,2,4]triazolo[4,3-a]pyridin-8-yl)-6-(3-hydroxy-3-methylbut-1-yn-1-yl)pyridin-2-yl)-2-(3,5-difluorophenyl)ethyl)-2-((3b-S,4aR)-5,5-difluoro-3-(trifluoromethyl)-3b,4,4a,5-tetrahydro-1H-cyclopropa[3,4]cyclopenta[1,2-c]pyrazol-1-yl)acetamide]",89%,90%,9.59 µM
"Cn1nc(NC(=O)CO)c2c(Cl)ccc(-c3ccc(C#CC(C)(C)O)nc3[C@H](Cc3cc(F)cc(F)c3)NC(=O)Cn3nc(C(F)F)c4c3C(F)(F)[C@@H]3C[C@H]43)c21 [Compound 88, N—((S)-1-(3-(4-chloro-3-(2-hydroxyacetamido)-1-methyl-1H-indazol-7-yl)-6-(3-hydroxy-3-methylbut-1-yn-1-yl)pyridin-2-yl)-2-(3,5-difluorophenyl)ethyl)-2-((3b-S,4aR)-3-(difluoromethyl)-5,5-difluoro-3b,4,4a,5-tetrahydro-1H-cyclopropa[3,4]cyclopenta[1,2-c]pyrazol-1-yl)acetamide]",100%,100%,8.49 µM
"Cn1nc(N)c2cccc(-c3cnc(C#CC(C)(C)O)nc3[C@H](Cc3cc(F)cc(F)c3)NC(=O)Cn3nc(C(F)F)c4c3C(F)(F)CCC4(F)F)c21 [Compound 37F, (S)—N-(1-(5-(3-amino-1-methyl-1H-indazol-7-yl)-2-(3-hydroxy-3-methylbut-1-yn-1-yl)pyrimidin-4-yl)-2-(3,5-difluorophenyl)ethyl)-2-(3-(difluoromethyl)-4,4,7,7-tetrafluoro-4,5,6,7-tetrahydro-1H-indazol-1-yl)acetamide]",90%,90%,6.35 µM
